Measurements as given in PMC9762789, “Chromone-based monoamine oxidase B inhibitor with potential iron-chelating activity for the treatment of Alzheimer’s disease” (Journal of Enzyme Inhibition and Medicinal Chemistry, 2022).
Read-outs that look alike come from different tables or passages of the source.

Legend:
MAO-B = target: T1, MAO-B (Homo sapiens, UniProt P27338); assay: hMAO-B inhibition assay; assay type: biochemical; settings: for inhibition at 0.1 µM: read-out: Inhibitory rate (%, 100 nM)
T1 construct: purchased Sigma-Aldrich
T1 sequence (P27338 1-520): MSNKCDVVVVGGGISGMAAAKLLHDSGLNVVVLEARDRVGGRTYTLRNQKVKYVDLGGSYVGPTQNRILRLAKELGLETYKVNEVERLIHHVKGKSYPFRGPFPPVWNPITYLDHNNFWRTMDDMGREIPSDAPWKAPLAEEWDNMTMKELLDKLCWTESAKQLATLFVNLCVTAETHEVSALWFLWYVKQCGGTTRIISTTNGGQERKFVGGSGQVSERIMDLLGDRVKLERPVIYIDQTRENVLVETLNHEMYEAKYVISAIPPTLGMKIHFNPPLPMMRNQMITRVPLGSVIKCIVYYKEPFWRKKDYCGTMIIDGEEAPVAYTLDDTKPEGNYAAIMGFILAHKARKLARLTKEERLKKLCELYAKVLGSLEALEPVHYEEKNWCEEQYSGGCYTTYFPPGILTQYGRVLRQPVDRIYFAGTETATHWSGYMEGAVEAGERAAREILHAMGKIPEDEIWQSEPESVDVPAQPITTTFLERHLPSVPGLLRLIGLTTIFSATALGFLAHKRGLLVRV
Description: (§1) The reagents and enzymes (Human MAO-B and Human MAO-A) applied in this experiment were purchased from Sigma-Aldrich. According to the manuals, all components (substrate solution and enzyme solution) are diluted and placed aside for use. The detailed process has been mentioned in our early work[34].

[1] = pKa determination by automated spectrophotometric titration; assay type: physicochemical; settings: 0.1 M KCl solution
PAMPA-BBB assay = assay type: in vitro ADME; settings: PAMPA-BBB, mean ± SEM of eight independent experiments
Excerpt: Good blood–brain barrier (BBB) permeability is the key to exerting drug efficacy in the treatment of central nervous system diseases. To evaluate whether the target compound could penetrate BBB, a parallel artificial membrane permeability assay (PAMPA) was used to predict[32]^,[33]. […] Therefore, due to its potential ability to cross the BBB, compound 17d was selected for subsequent assay.
PAMPA was used to predict the BBB permeability of the screened compound. The detailed process has been mentioned in our early work[32]^,[33].

[2] = iron (III) affinity constants and pFe3+ by spectrophotometric titration; assay type: physicochemical; settings: for Log β1 / Log β2 / Log β3: DMSO: KCl (0.1 M) = 1:1.5 (v/v); for pFe^3+: calculated from Log β values obtained in DMSO: KCl (0.1 M) = 1:1.5 (v/v)
Human MAO-A = target: T2, Human MAO-A (Homo sapiens, UniProt P21397); assay: hMAO-A inhibition assay; assay type: biochemical
T2 construct: purchased Sigma-Aldrich
T2 sequence (P21397 1-527): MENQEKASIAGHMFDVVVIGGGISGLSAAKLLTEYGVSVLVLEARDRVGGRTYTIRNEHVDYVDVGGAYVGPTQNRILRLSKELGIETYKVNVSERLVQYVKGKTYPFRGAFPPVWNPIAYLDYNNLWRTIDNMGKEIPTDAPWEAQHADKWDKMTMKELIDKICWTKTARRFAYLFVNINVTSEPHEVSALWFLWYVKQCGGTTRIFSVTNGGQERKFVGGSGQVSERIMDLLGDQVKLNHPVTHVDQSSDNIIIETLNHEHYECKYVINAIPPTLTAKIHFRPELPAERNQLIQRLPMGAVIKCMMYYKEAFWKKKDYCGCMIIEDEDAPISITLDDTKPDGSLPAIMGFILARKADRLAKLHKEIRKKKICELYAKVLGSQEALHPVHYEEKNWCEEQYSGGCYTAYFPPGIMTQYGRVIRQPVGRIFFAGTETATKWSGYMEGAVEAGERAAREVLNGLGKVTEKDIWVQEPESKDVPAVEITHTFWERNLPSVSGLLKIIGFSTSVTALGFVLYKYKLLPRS
Description: Further, the inhibitory activity of compounds against hMAO-A isoform was tested and calculated as a selectivity index [Selectivity index (SI): IC50 (hMAO-A)/IC50 (hMAO-B)].
as §1

[3] = test system: scopolamine-induced cognitive impairment mice model; assay: Morris water maze test, scopolamine-induced memory impairment; assay type: in vivo, ICR mice; set-up: Distance to first entry: unit not given here; settings: 15 mg/kg, scopolamine 15 mg/kg, ICR mice, mean ± SEM, n = 15; for Latency to first entry: in s (unit assumed)
Excerpt: To further explore the in vivo anti-AD effect of compound 17d on the scopolamine-induced cognitive impairment mice model, the Morris Water Maze experiment was selected; data are shown in Figure 7 and Table 5.
Figure 7.
Adult female ICR mice (weight 20–25 g) were obtained from the Zhejiang Academy of Medical Sciences (Hangzhou, China). Scopolamine hydrobromide and Pargyline were purchased from Aladdin Reagents. Memantine was purchased from Energy Chemical. All experiments were approved by the Laboratory Animals Ethical Committee of the Zhejiang University of Technology (No. 20211210103). In this test, mice were prepared as clarified and clear injections, consisting of 20% (2-Hydroxypropyl)-β-cyclodextrin, 10% DMSO, and PBS. […] Mice were administered at a frequency of once a day over 15 d with a fixed dosing schedule. The body weight of mice was measured during the experiment.
After eliminating environmental stress, the behavioural test was performed over the next five days. The mice were trained to find the platform (10 cm diameter) in the circular light-avoidance pool (120 cm diameter and 60 cm height) filled with water (40 cm, depth), which was described in detail in our previous study. All mice received at least one training session daily in four quadrants for four consecutive days before the probe trial of finding the platform within 120 s. Recordings were made with SMART version 3.0 (Panlab, Spain) and processed by Graphpad Prism version 6 software (Graphpad Software Inc., La Jolla, CA, USA).

IC50 (MAO-B) | SI: hMAO-B selectivity index = IC50 (hMAO-A)/IC50 (hMAO-B) (MAO-B) | inhibition at 0.1 µM (MAO-B; hMAO-B, 100 nM) | pKa ([1]; read-out: pKa1) | pKa ([1]; read-out: pKa2) | Log β1 [2] | Log β2 [2] | Log β3 [2] | pFe^3+ [2] | IC50 (Human MAO-A) | melting point | SMILES | Entries to target [3] | Latency to first entry [3] | also measured
67.3 ± 1.9 nM | 30.7 | 53.1 ± 1.6% | 2.81 | 9.8 | 13.46 | 25.19 | 35.28 | 18.62 | 2060 ± 35.4 nM | 248 to 250 °C | Cc1c(O)c(=O)ccn1CCNCc1coc2ccccc2c1=O [Compound 17a, 3-Hydroxy-2-methyl-1–(2-(((4-oxo-4H-chromen-3-yl)methyl)amino)ethyl)pyridin-4(1H)-one] | – | – | Pe ± SEM (PAMPA-BBB assay): 1.22 ± 0.22 *10^−6 cm/s; Papp (PAMPA-BBB assay; read-out: Pe ± SEM): 1.22 ± 0.22 ×10⁻⁶ cm/s
75.6 ± 3.1 nM | 17.4 | 61.4 ± 3.4% | 2.61 | 9.47 | 13.02 | 24.99 | 34.39 | 18.70 | 1310 ± 13.4 nM | 189 to 191 °C | Cc1c(O)c(=O)ccn1CCNCc1coc2cc(OCc3ccc(Cl)cc3)ccc2c1=O [Compound 17l, 1–(2-(((7-((4-Chlorobenzyl)oxy)-4-oxo-4H-chromen-3-yl)methyl)amino)ethyl)-3-hydroxy-2-methylpyridin-4(1H)-one] | – | – | –
– | – | – | – | – | – | – | – | – | – | – | CC12CC3CC(C)(C1)CC(N)(C3)C2 [Memantine] | 4.0 ± 0.3 | 13 ± 1 | Entries to target ([3]; listed as memantine): 4.0 ± 0.3; Latency to first entry ([3]; listed as memantine): 13 ± 1
– | – | – | – | – | – | – | – | – | – | – | C#CCN(C)Cc1ccccc1 [Pargyline] | 5.3 ± 0.9 | 11 ± 1 | Distance to first entry [3]: 2.6 ± 0.3; Distance to first entry ([3]; listed as pargyline): 2.6 ± 0.3; Entries to target ([3]; listed as pargyline): 5.3 ± 0.9; Latency to first entry ([3]; listed as pargyline): 11 ± 1; inhibition at 0.1 µM (MAO-B): 48.9 ± 1.7%
